In ChEMBL document CHEMBL6121047, “Design, Synthesis, and Evaluation of Selective PDE4 Inhibitors for the Therapy of Pulmonary Injury” (J Med Chem, 2025):
pIC50: −log10 of the molar value. Calls of active or inactive are those of the source. The rule behind the calls is not given here.

How the values were obtained:
[1] = Acute toxicity in Sprague-Dawley rat assessed as pathological changes in kidney at 1 g/Kg, po administered via gavage by H and E staining based analysis; format: organism-based; conditions: in vivo, 1000 mg/kg
Mus musculus [2] = assay: Anti-inflammatory activity against cigarette-smoke/LPS-induced COPD male C57BL/6 mouse model assessed as reduction in MMP9 level in BALF at 5 mg/kg pretreated with cigarette smoke exposure for 21 weeks with subsequent LPS induction twice on the first and 15th day followed by compound administration every day via gavage for 4 weeks; format: functional, organism-based
RAW264.7 [3] = assay: cells; conditions: Mus musculus
NCI-H292 = assay: Anti-inflammatory activity against EGF-induced human NCI-H292 cells assessed as decrease in MUC5AC mRNA expression by RT-qPCR analysis; format: functional, cell-based; conditions: dose 10-50 µM
[4] = Acute toxicity in Sprague-Dawley rat assessed as increase in body weight at 1 g/Kg, po administered via gavage and measured on day 14; format: organism-based; conditions: in vivo, 1000 mg/kg
[5] = Acute toxicity in Sprague-Dawley rat assessed as effect on apparent heart coefficient change at 1 g/Kg, po administered via gavage; format: organism-based; conditions: in vivo, 1000 mg/kg
RAW264.7 [6] = assay: Cytotoxicity against mouse RAW264.7 cells assessed as reduction in cell viability incubated for 24 hrs by CCK-8 assay; format: toxicity, cell-based; conditions: raw264.7, 24 h
Mus musculus [7] = assay: (§1) Anti-inflammatory activity against cigarette-smoke/LPS-induced COPD male C57BL/6 mouse model assessed as decrease in collagen formation at 5 mg/kg pretreated with cigarette smoke exposure for 21 weeks with subsequent LPS induction twice on the first and 15th day followed by compound administration every day via gavage for 4 weeks by masson staining based microscopic analysis; format: functional, organism-based
RAW264.7 [8] = assay: cells; conditions: Mus musculus; remark: listed apart in the source
[9] = molecular target: 3',5'-cyclic-AMP phosphodiesterase 4B (Homo sapiens, UniProt Q07343); assay: Inhibition of recombinant full length PDE4B (unknown origin) using FAM-cAMP as substrate at 1 uM preincubated with compound for compound for 15 mins followed by substrate addition and measured after 30 mins by Envision multilabel reader analysis relative to control; conditions: time 45.0 min
Mus musculus [10] = assay: (§2) Anti-inflammatory activity against LPS-induced acute lung injury male BALB/c mouse model assessed as restoration of alveolar septa in lung at 8 to 32 mg/kg administered once a day via gavage for 7 days followed by LPS stimulation and measured after 24 hrs by H and E staining based analysis; format: functional, organism-based; conditions: dose 8-32 mg/kg, time 192.0 hrs
Mus musculus [11] = assay: as §1, with “reduction” for “decrease”, “bronchiole thickness” for “collagen formation”, “H and E” for “masson”; format: functional, organism-based
[12] = AUC (0 to t) in Sprague-Dawley rat at 10 mg/kg, po measured upto 24 hrs by LC-MS/MS analysis; format: ADME, organism-based; conditions: in vivo
[13] = Toxicity in female Beagle dog assessed as drug tolerance at 1 to 3 mg/kg, po administered once via gavage and measured within 24 hrs; format: organism-based, Canis lupus familiaris; conditions: in vivo, dose 1-3 mg/kg
[14] = Metabolic stability in dog liver microsomes assessed as half life incubated for 4 hrs in presence of NADPH by LC-MS analysis; format: ADME, Canis lupus familiaris, Microsome
[15] = Acute toxicity in Sprague-Dawley rat assessed as pathological changes in heart at 1 g/Kg, po administered via gavage by H and E staining based analysis; format: organism-based; conditions: in vivo, 1000 mg/kg
[16] = Half life in Sprague-Dawley rat at 10 mg/kg, po measured upto 24 hrs by LC-MS/MS analysis; format: ADME, organism-based; conditions: in vivo
[17] = Apparent volume of distribution in Sprague-Dawley rat at 5 mg/kg, iv measured upto 24 hrs by LC-MS/MS analysis; format: ADME, organism-based; conditions: in vivo, read-out: Vz
Mus musculus [18] = assay: Anti-inflammatory activity against LPS-induced acute lung injury male BALB/c mouse model assessed as reduction in TNF-alpha level in BALF at 8 to 32 mg/kg administered once a day via gavage for 7 days followed by LPS stimulation and measured after 24 hrs; format: functional, organism-based; conditions: dose 8-32 mg/kg, time 192.0 hrs
Mus musculus [19] = assay: as §2, with “cavities” for “septa”, “based microscopic” for “based”; format: functional, organism-based; conditions: dose 8-32 mg/kg, time 192.0 hrs
Mus musculus [20] = assay: Anti-inflammatory activity against LPS-induced acute lung injury male BALB/c mouse model assessed as reduction in total cell counts in BALF at 8 to 32 mg/kg administered once a day via gavage for 7 days followed by LPS stimulation and measured after 24 hrs; format: functional, organism-based; conditions: dose 8-32 mg/kg, time 192.0 hrs
[21] = Acute toxicity in Sprague-Dawley rat assessed as pathological changes in lung at 1 g/Kg, po administered via gavage by H and E staining based analysis; format: organism-based; conditions: in vivo, 1000 mg/kg
[22] = Acute toxicity in Sprague-Dawley rat assessed as pathological changes in liver at 1 g/Kg, po administered via gavage by H and E staining based analysis; format: organism-based; conditions: in vivo, 1000 mg/kg
[23] = AUC (0 to infinity) in Sprague-Dawley rat at 5 mg/kg, iv measured upto 24 hrs by LC-MS/MS analysis; format: ADME, organism-based; conditions: in vivo
RAW264.7 [24] = assay: Anti-inflammatory activity in LPS-induced mouse RAW264.7 cells assessed as decrease in p-p38 MAPK protein level by Western blotting analysis; format: functional, cell-based
Mus musculus [25] = assay: Enhancement of sputum secretion in male BALB/c mouse model assessed as increase in phenol red secretion in BALF at 4 to 32 mg/kg administered every day via gavage for 7 days followed by phenol red administration at 1 hrs post last dose and measured after 30 mins; format: functional, organism-based; conditions: dose 4-32 mg/kg, time 169.5 hrs
BEAS-2B [26] = assay: Anti-inflammatory activity in LPS-induced human BEAS-2B cells assessed as inhibition of IL-6 secretion level at 10 uM preincubated with compound for 1 hr followed by LPS addition and measured after 24 hrs by ELISA; format: functional, cell-based; conditions: time 25.0 hrs
[27] = Acute toxicity in Sprague-Dawley rat assessed as effect on apparent kidney coefficient change at 1 g/Kg, po administered via gavage; format: organism-based; conditions: in vivo, 1000 mg/kg
Mus musculus [28] = assay: Anti-inflammatory activity against LPS-induced acute lung injury male BALB/c mouse model assessed as reduction in IL-6 level in BALF at 8 to 32 mg/kg administered once a day via gavage for 7 days followed by LPS stimulation and measured after 24 hrs; format: functional, organism-based; conditions: dose 8-32 mg/kg, time 192.0 hrs
[29] = Metabolic stability in rat liver microsomes assessed as half life incubated for 4 hrs in presence of NADPH by LC-MS analysis; format: ADME, Microsome
[30] = Toxicity in female Beagle dog assessed as emesis at 1 to 3 mg/kg, po administered once via gavage and measured within 24 hrs; format: organism-based, Canis lupus familiaris; conditions: in vivo, dose 1-3 mg/kg
BEAS-2B [31] = assay: Anti-inflammatory activity in LPS-induced human BEAS-2B cells assessed as inhibition of TNF-alpha secretion level at 10 uM preincubated with compound for 1 hr followed by LPS addition and measured after 24 hrs by ELISA; format: functional, cell-based; conditions: time 25.0 hrs
[32] = Toxicity in female Beagle dog assessed as side effects at 1 to 3 mg/kg, po administered once via gavage and measured within 24 hrs; format: organism-based, Canis lupus familiaris; conditions: in vivo, dose 1-3 mg/kg
[33] = Half life in Sprague-Dawley rat at 5 mg/kg, iv measured upto 24 hrs by LC-MS/MS analysis; format: ADME, organism-based; conditions: in vivo
[34] = Metabolic stability in mouse liver microsomes assessed as half life incubated for 4 hrs in presence of NADPH by LC-MS analysis; format: ADME, Microsome
[35] = Acute toxicity in Sprague-Dawley rat assessed as effect on apparent liver coefficient change at 1 g/Kg, po administered via gavage; format: organism-based; conditions: in vivo, 1000 mg/kg
[36] = AUC (0 to infinity) in Sprague-Dawley rat at 10 mg/kg, po measured upto 24 hrs by LC-MS/MS analysis; format: ADME, organism-based; conditions: in vivo

Chain of 3',5'-cyclic-AMP phosphodiesterase 4B (Q07343 whole entry): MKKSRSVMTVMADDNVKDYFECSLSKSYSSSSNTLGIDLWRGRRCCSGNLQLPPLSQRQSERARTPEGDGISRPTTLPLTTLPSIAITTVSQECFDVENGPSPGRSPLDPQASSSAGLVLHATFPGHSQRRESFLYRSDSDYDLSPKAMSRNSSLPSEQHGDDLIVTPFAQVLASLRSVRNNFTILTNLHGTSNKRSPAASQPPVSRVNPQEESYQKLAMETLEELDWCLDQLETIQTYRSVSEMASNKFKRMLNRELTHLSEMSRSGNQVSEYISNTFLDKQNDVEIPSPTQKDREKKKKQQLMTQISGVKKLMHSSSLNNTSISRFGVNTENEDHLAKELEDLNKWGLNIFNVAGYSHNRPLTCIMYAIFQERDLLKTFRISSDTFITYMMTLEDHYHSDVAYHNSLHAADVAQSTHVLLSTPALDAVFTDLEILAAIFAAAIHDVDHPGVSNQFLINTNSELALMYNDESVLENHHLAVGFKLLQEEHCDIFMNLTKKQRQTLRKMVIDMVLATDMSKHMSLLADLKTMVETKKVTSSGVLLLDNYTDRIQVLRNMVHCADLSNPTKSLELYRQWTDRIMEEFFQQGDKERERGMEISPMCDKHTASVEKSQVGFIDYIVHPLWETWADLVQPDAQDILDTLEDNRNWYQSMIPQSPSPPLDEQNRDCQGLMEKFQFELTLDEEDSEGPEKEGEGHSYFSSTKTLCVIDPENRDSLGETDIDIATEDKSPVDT

With O=C(Nc1nccs1)c1cccc2[nH]c(-c3ccc(OC(F)F)c(OCC4CC4)c3)nc12 the Activity [1] was “Non-toxic”, the Activity (Mus musculus [2]) was “Active” and the pIC50 (RAW264.7 [3]) was 4.52. The Activity (NCI-H292) was “Dose-dependent-effect”, the Activity [4] was “Non-toxic” and the Activity [5] was “Non-toxic”. For the same compound, the Activity (RAW264.7 [6]) was “Non-toxic”, the Activity (Mus musculus [7]) was “Active” and the pIC50 (RAW264.7 [8]) was 4.53. The inhibition [9] was 89.9%, the Activity (Mus musculus [10]) was “Active” and the Activity (Mus musculus [11]) was “Active”. For the same compound, the AUC(0-t) at 24 h [12] was 2.13 µg·h/mL, the Activity [13] was “Non-toxic” and the half-life [14] was 0.721 h. For the same compound, the Activity [15] was “Non-toxic”, the half-life [16] was 3.75 h and the Vd [17] was 0.606 L/kg. For the same compound, the Activity (Mus musculus [18]) was “Active”, the Activity (Mus musculus [19]) was “Active” and the Activity (Mus musculus [20]) was “Active”. The Activity [21] was “Non-toxic”, the Activity [22] was “Non-toxic” and the AUC(0-inf) [23] was 23.2 µg·h/mL. For the same compound, the Activity (RAW264.7 [24]) was “Active”, the Activity (Mus musculus [25]) was “Active” and the Activity (BEAS-2B [26]) was “Active”. The Activity [27] was “Non-toxic”, the Activity (Mus musculus [28]) was “Active” and the half-life [29] was 1.03 h. For the same compound, the Activity [30] was “Non-toxic”, the Activity (BEAS-2B [31]) was “Active” and the Activity [32] was “Non-toxic”. The half-life [33] was 1.97 h, the half-life [34] was 0.67 h and the Activity [35] was “Non-toxic”. It also gave an AUC(0-inf) [36] of 2.16 µg·h/mL.
